Ends that are not written are not given here.
Assays:
p65 = biological target: T1, p65 (Homo sapiens, UniProt Q04206); experiment: Co-IP of p65 by SFB-tagged RL peptide in 293T cells; format: binding; settings: 48 hours after transfection
T1 construct: endogenous in cells; host or cells: 293T
Protocol: FIGS. 10A-G. (A) Schematic diagram depicting a set of RB-N recombinant protein constructs. Western blot analysis of p65 proteins in PC-3 cells whole cell lysate pulled down by GST or GST-RB-N recombinant proteins. Stars indicate expected molecular weight. (B) Western blot analysis of in vitro transcribed and translated p65 proteins pulled down by GST or GST-RB recombinant proteins. Stars indicate expected molecular weight. (C) Western blot analysis of WCL and co-IP samples in 293T cells 48 h after transfected with indicated constructs. (D) Schematic diagram depicting an evolutionally conserved R-linker region in the N-terminal of RB. FIG. 10D discloses SEQ ID NOS 265 and 271-274, respectively, in order of appearance. (E) Western blot analysis of WCL and co-IP samples in 293T cells 48 hours after transfected with indicated constructs. (F) PC-3 cells were transfected with indicated plasmids. Western blot analysis of HA-RB proteins in PC-3 whole cell lysate pulled down by GST or GST-p65 recombinant proteins. Stars indicate expected molecular weight. (G) Schematic diagram depicting fully positively charged RB-N allows otherwise negatively charged by S249/T252 phosphorylation to bind to negatively charged 166FSLMV170 motif (SEQ ID NO: 286) in EID1. FIG. 10G discloses SEQ ID NOS 265-266 and 275, respectively, in order of appearance. […]

PTEN-CaP8 tumors = experiment: PTEN-CaP8 mice tumor model, tumor growth; format: in vivo, mouse; settings: C57BL/6 mice, s.c. PTEN-CaP8 tumors
Protocol: FIGS. 6A-J. The small S249/T252 phosphorylation-mimicking polypeptide of RB blocks irradiation-induced PD-L1 expression and inhibits cancer immune evasion. (A, B) PC-3 cells were infected with lentivirus expressing control shRNA or p65-specific or shRNA. 24 hours after puromycin selection, cells were treated with or without gamma irradiation (IR) (12 Gy). 48 hours after IR treatment, cells were harvested for western blotting analysis (A) and RT-qPCR analysis (B). All data were shown as mean values±SD (n=3). * P<0.05, ** P<0.01, *** P<0.001. (C, D) PC-3 cells were treated with without gamma irradiation (12 Gy). Cells were harvested at the indicated time point for western blotting analysis (C) and RT-qPCR analysis (D). All data were shown as mean values±SD (n=3). * P<0.05, ** P<0.01, *** P<0.001. (E) Western blot analysis of WCL and co-IP samples in PC-3 cells 48 hours after treated with or without gamma irradiation (12 Gy). […] (J) The absolute number of CD45^+CD8^+ T cells, CD45^+CD4^+ T cells, and CD11b^+Gr1^+ myeloid cells of implanted PTEN-CaP8 in tumors treated with indicated agents was analyzed by FACS. […]
6-week-old C57BL/6 mice (Jackson Lab) were used for animal experiments. […] The volume of xenografts was measured every other day and calculated using the formula L×W2×0.5. […]

T1 sequence (Q04206 whole entry): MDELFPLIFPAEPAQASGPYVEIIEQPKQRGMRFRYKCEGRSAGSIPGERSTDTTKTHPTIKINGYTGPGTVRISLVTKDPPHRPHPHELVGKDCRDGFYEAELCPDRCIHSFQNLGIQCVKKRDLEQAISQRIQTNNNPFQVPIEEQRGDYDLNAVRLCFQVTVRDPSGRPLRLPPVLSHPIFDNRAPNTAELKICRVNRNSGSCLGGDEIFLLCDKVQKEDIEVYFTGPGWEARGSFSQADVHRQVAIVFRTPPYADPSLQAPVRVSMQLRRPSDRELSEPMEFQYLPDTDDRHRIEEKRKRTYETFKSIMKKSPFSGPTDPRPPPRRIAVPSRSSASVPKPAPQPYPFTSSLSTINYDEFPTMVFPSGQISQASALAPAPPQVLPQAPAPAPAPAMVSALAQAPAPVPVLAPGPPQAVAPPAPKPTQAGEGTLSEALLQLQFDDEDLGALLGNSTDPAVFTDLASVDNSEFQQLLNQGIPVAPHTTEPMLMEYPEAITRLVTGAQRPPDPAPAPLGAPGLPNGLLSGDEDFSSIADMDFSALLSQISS

In the case of “RL-S249D/T252D: S249/T252 phospho-mimicking R-Linker (RL) peptide: fragment of RB-N containing 21 amino acids surrounding S249/T252, expressed SFB-tagged or by lentivirus (NGDPRDPRRGQNRSARIAKQL; also: expressed SFB-tagged (tag left off))”, the “immunoprecipitation of p65 by SFB-tagged RL peptide” value (p65) is reported as “effectively immunoprecipitated”, the “tumor growth, agent combined with gamma irradiation” value (PTEN-CaP8 tumors; 12 Gy) is reported as “tumors regressed” and the “tumor growth, agent without irradiation” value (PTEN-CaP8 tumors; anti-PD-L1 200 μg or lentiviral peptide expression) is reported as “markedly inhibited”.

— patent US20210401931A1, “METHODS AND MATERIALS FOR TREATING CANCER” (Mayo Foundation for Medical Education and Research, priority 2018, published 2021)
